Measured values as given in publication PMC8670039, “Flavonoids kaempferol and quercetin are nuclear receptor 4A1 (NR4A1, Nur77) ligands and inhibit rhabdomyosarcoma cell and tumor growth” (Journal of Experimental & Clinical Cancer Research : CR, 2021).

Biological target: nuclear receptor 4A1 (NR4A1, Nur77) (Homo sapiens, UniProt P22736)
Assay: Trp fluorescence quenching direct binding; also bis-ANS competitive displacement (Ki […])

nuclear receptor 4A1 (NR4A1, Nur77), sequence (P22736 351-598 limits assumed): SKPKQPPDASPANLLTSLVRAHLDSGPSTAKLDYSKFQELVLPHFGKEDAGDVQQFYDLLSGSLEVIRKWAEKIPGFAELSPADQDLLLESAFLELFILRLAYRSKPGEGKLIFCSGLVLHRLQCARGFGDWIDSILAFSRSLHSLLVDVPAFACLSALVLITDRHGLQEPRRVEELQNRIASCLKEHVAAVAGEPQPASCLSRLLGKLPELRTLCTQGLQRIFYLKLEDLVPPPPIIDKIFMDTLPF

O=c1c(O)c(-c2ccc(O)c(O)c2)oc2cc(O)cc(O)c12 [Q, quercetin]
Kd: 930 nM
